From US20130324533A1, “METHOD OF DETECTING RESISTANCE TO CANCER THERAPY” (NATIONAL UNIVERSITY OF SINGAPORE, priority 2010, published 2013)
Like-named read-outs stand apart in the source and are kept apart here.

Legend:
HCC2279 cells [1] = assay: Trypan blue viability assay in NSCLC cells; format: cell-based, human
Procedure: FIG. 25F. Cell viability of PC9 and HCC2279 treated for 48 h with 0.5 μM gefitinib, 2.5 μM ABT-737, or both. Cell viability was determined by trypan blue exclusion, and plotted as a percentage of the no-drug control. (mean+/−standard error of the mean, *p=0.00004 with respect to gefitinib- and ABT-737-treated PC9 cells).
PC9 or HCC2279 cells were seeded in a 24-well plate at 5×10^5 or […] cells per wells in triplicate, and treated with DMSO (no drug), 0.5 μM gefitinib, ABT-737 or combination of gefitinib and ABT-737. Trypan blue staining was performed to assess the number of viable cells 48 hours post treatment.

[2] = system: K562-BIM^intron+/− and K562-BIM^intron−/− cells; assay: Western blot of genome-edited K562 clones (BIMEL, cleaved caspase 3, PARP); format: cell-based, human; conditions: polymorphism-containing K562 cells; FIG. 16H
Procedure: Western blots were probed with antibody to BIMEL, cleaved caspase 3, PAR P, CrkL, and β-actin. […] Detection was performed with HRP-conjugated secondary antibodies that are specific to rabbit (Sigma) or mouse IgG (Santa Cruz). The membrane was visualized using the Western Lightning chemiluminescence reagent (PerkinElmer). […] In a 6-well plate, 1×10^6 cells were seeded into each well at a density of 2×10^5 cells/ml. After incubation with the appropriate drug for 48 hours, the cells were harvested for western analysis (FIG. 16).

HCC2279 cells [3] = assay: Western blot of apoptotic signaling in NSCLC cells (PARP, caspase 3 cleavage); format: cell-based, human; conditions: 0.5 μM gefitinib, […] ABT-737, 24 h, FIG. 25E
Procedure: FIG. 25E. Western blot showing levels of phospho-EGFR (p-EGFR), PAR P, and caspase 3 cleavage in cells treated for 24 h with 0.5 μM gefitinib, 2.5 μM ABT-737, or both.
Gefitinib and ABT-737 were resuspended in DMSO and kept at −20° C.
Western blotting was performed using antibodies against human BIM, CASPASE 3, cleaved CASPASE 3, PARP, phospho-EGFR (Y1068) (all from Cell Signaling Technology), and β-actin (Sigma).

CML patients = conditions: cited from earlier work
KCL22 cells [4] = assay: Growth curve of CML cell lines cultured with imatinib (FIG. 5F); conditions: KCL22 cells with deletion, 1 μM imatinib
Excerpt: CML lines were obtained from ATCC (MEG-01 and KU812), JCRB (NCO2) and DSMZ (KCL22, K562, KYO1, JK1, BV173 and NALM1).

KCL22 cells [5] = conditions: FIG. 15H and Table H13
Procedure: Apoptosis was measured using the Annexin V-FITC/7-AAD kit (Beckman Coulter) according to the manufacturer's instructions. Briefly, treated and untreated cells were Annexin V-FITC- and 7-AAD-stained in 1× binding buffer for 15 min at room temperature and then analyzed by flow cytometry.

CN(C)CC[C@H](CSc1ccccc1)Nc1ccc(S(=O)(=O)NC(=O)c2ccc(N3CCN(Cc4ccccc4-c4ccc(Cl)cc4)CC3)cc2)cc1[N+](=O)[O-] [ABT-737]
TKI-induced cell death on addition of ABT-737 (HCC2279 cells [1]; HCC2279, 0.5 μM gefitinib, […] ABT-737, 48 h, FIG. 25F): enhanced
ability of imatinib to activate apoptosis on addition of ABT-737 [2]: enhanced
TKI-induced apoptotic signaling on addition of ABT-737 (HCC2279 cells [3]): enhanced

COc1cc2ncnc(Nc3ccc(F)c(Cl)c3)c2cc1OCCCN1CCOCC1 [gefitinib]
sensitivity of HCC2279 to gefitinib (HCC2279 cells [1]; HCC2279, NSCLC cell line carrying the BIM deletion polymorphism, FIG. 25): intrinsically resistant

Cc1ccc(NC(=O)c2ccc(CN3CCN(C)CC3)cc2)cc1Nc1nccc(-c2cccnc2)n1 [imatinib]
rate of incomplete cytogenetic responses (CML patients; East-Asian countries): ~50%
rate of incomplete cytogenetic responses (CML patients; Europe and North America): 26%
sensitivity of KCL22 cells (growth curve) (KCL22 cells [4]): resistant
sensitivity of KCL22 cells to imatinib (KCL22 cells [5]): resistant
